In data set [1] the test system is B-cell. Conditions: Mus musculus, 20 uM.
The nature of data set [2]: Upregulation of IRE-1 expression in human Mino cells at 20 uM after 24 hrs by immunoblotting analysis. Format: functional, cell-based.
Data set [3] in a line: Upregulation of IRE-1 expression in human Jeko cells at 20 uM after 24 hrs by immunoblotting analysis. Format: functional, cell-based. Conditions: JeKo-1.
The nature of data set [4]: Growth inhibition of human Mino cells after 48 hrs by XTT assay. Format: functional.
The nature of data set [5]: Growth inhibition of human Jeko cells after 48 hrs by XTT assay. Format: functional, JeKo-1.
The subject of data set [6] is Mino. Briefly: Induction of apoptosis in human Mino cells assessed as PARP cleavage at 50 uM after 72 hrs by immunoblotting analysis. Format: functional, cell-based.
Data set [7] has as its system JeKo-1. Briefly: Induction of apoptosis in human Jeko cells assessed as PARP cleavage at 50 uM after 72 hrs by immunoblotting analysis. Format: functional, cell-based.
Data set [8] has as its system Mino. Conditions: Homo sapiens, 20 uM.
Data set [9] concerns JeKo-1. Conditions: Homo sapiens, 20 uM.
For data set [10], the system named is JeKo-1. Description: cells. Conditions: Homo sapiens, JeKo-1, 24 h.
Data set [11] deals with B-cell. Briefly: Inhibition of XBP-1s expression in LPS-stimulated wild-type mouse B lymphocytes at 20 uM after 24 hrs by Western blotting analysis.
Data set [12] deals with Serine/threonine-protein kinase/endoribonuclease IRE1 (Homo sapiens, UniProt O75460). Briefly: Inhibition of human recombinant puritin-His-tagged IRE-1 RNase expressed in SF21 cells using XBP-1 RNA stem loop as substrate incubated for 30 mins prior to substrate addition measured after 2 hrs by FRET-suppression assay.
Serine/threonine-protein kinase/endoribonuclease IRE1, sequence (O75460 whole entry): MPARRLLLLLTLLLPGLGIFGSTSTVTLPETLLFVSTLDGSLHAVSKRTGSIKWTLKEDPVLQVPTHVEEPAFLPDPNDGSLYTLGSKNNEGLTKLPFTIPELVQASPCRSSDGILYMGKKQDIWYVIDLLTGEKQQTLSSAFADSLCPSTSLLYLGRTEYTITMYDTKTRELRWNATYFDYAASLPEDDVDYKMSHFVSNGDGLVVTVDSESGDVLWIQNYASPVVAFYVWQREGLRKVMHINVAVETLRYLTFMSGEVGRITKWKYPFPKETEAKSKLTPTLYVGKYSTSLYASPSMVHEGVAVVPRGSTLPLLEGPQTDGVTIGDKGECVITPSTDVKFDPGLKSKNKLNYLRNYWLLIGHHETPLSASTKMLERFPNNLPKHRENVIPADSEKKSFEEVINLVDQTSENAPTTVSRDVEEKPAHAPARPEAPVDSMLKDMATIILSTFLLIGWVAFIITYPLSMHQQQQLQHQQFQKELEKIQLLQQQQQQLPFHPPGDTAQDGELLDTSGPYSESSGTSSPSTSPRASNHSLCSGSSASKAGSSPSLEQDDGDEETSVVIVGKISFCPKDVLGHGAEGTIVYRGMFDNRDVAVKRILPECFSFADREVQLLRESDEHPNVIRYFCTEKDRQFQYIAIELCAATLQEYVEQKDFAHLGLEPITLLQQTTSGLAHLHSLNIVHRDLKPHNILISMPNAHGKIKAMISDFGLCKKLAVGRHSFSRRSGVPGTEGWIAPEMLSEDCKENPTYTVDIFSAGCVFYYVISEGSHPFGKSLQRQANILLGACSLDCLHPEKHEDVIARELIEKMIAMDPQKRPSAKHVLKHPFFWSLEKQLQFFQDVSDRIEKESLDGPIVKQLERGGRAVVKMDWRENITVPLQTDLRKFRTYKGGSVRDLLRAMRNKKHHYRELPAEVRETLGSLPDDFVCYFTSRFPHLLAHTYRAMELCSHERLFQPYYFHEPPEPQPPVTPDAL
The nature of data set [13]: Drug degradation after 12 hrs by LC-MS analysis. Format: physicochemical.

The source made the active and inactive calls. No cut-off for these calls is given here.

On to `C=CCOC(=O)N1CCc2c(c(=O)oc3c(C(=O)OC)c(O)ccc23)C1`, for which, in data set [1], the inhibition result was “inactive”.

Regarding `CN1CCc2c(c(=O)oc3c(C=O)c(O)ccc23)C1`, the result in [2], in [3], in [6] and in data set [7] was Active. The GI in data set [4] came to 55 µM; in [5], 66 µM. Moreover, the inhibition entry in [1], in data set [8] and in data set [9] was “Active” throughout.

In data set [10], `Cc1cc(=O)oc2c(C=O)c(O)ccc12` yielded an IC50 of 1570 nM. In addition, the inhibition result in [11] is “Active”.

Turning to `C=CCOC(=O)N1CCc2c(c(=O)oc3c(C=O)c(O)ccc23)C1`, the result in [2] and in data set [3] was Active. The inhibition entry in [8], in data set [9] and in [11] was “Active” in each case.

For the compound `C=CCOC(=O)N1CCc2c(c(=O)oc3c(/C=C/C(=O)OCC)c(O)ccc23)C1`, the inhibition result in data set [1] is “inactive”.

For the compound `CC(=O)N1CCc2c(c(=O)oc3c(C=O)c(O)ccc23)C1`, the outcome in [2] and in data set [3] was Active. Also, the inhibition entry in data set [1], in data set [8] and in data set [9] was “Active” each time.

For the compound `C=CCOC(=O)N1CCc2c(c(=O)oc3c(C=O)c(OCc4ccccc4)ccc23)C1`, in data set [12], the IC50 was > 20000 nM.

Regarding `C=CCOC(=O)N1CCc2c(c(=O)oc3c(C(=O)O)c(O)ccc23)C1`, in data set [1], the inhibition result was “inactive”.

In the case of `C=CCOC(=O)N1CCc2c(c(=O)oc3c(C4OCCCO4)c(O)ccc23)C1`, in [13], the Stability result is reported as “Stable”. For the same compound, the inhibition entry in data set [11] was “Active”.

The values are drawn from ChEMBL document CHEMBL3259679, “Synthesis of novel tricyclic chromenone-based inhibitors of IRE-1 RNase activity” (J Med Chem, 2014).
